Test results: BindingDB's records for doi:10.1007/s10822-022-00478-x (Roche Innovation Center Basel, F. Hoffmann-La Roche Ltd., 2022)

Target: cAMP and cAMP-inhibited cGMP 3',5'-cyclic phosphodiesterase 10A (Homo sapiens, UniProt Q9Y233)
Experiment: PDE10A assay
Summary of the method: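 Human PDE10A (2 ng/well) preincubated 15 min RT with compound in HEPES pH 7.5, 10 mM MgCl2, BSA, then reacted 15 min with 50 nM [3H]cGMP/cGMP substrate. Stopped with Y-Si SPA beads; bound radioactivity counted, IC50 from four-parameter logistic, pIC50 = −log10(IC50).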

IC50	Structure (SMILES)
0.079 µM	COc1ccc(Cn2ccc(NC(=O)c3c(C(=O)N4CCC4)cnn3C)n2)cc1 [Roche-Dataset for PDE10A, Compound 977]
0.192 µM	Cn1ncc(C(=O)N2CCC2)c1C(=O)Nc1ccn(Cc2ccncc2)n1 [Roche-Dataset for PDE10A, Compound 978]
2.67 µM	Cc1ncoc1C(=O)Nc1cc(-c2ccccn2)nn1C [Roche-Dataset for PDE10A, Compound 979]
0.309 µM	Cc1c(Cl)cc(Cl)c2nc(CCc3ccn(C)n3)nn12 [Roche-Dataset for PDE10A, Compound 980]
0.071 µM	COc1ccc2c(=O)n(C)c3c(C)nc(-c4cccc(Cl)c4)n3c2c1 [Roche-Dataset for PDE10A, Compound 981]
0.028 µM	Cc1nc2cc(Cl)ccc2nc1OCc1nc(N2CCCC2)nn1C [Roche-Dataset for PDE10A, Compound 982]
1.27 µM	Cc1ncc(C)n2nc(CCc3nc(N4CCCOCC4)nn3C)nc12 [Roche-Dataset for PDE10A, Compound 984]
4.9 µM	CCCCc1cc(NC(=O)c2c(C(=O)N3CCC3)cnn2C)[nH]n1 [Roche-Dataset for PDE10A, Compound 985]
0.27 µM	Cc1nc(CCNC(=O)c2nc(C3CC3)ccc2Nc2cncnc2)n[nH]1 [Roche-Dataset for PDE10A, Compound 986]
0.00654 µM	Cc1nc(-c2ccccc2Cl)n2c3cc(Cl)ccc3c(=O)n(C)c12 [Roche-Dataset for PDE10A, Compound 987]
5.78 µM	O=C(NCC1CCOCC1)c1nc(C2CC2)cnc1Nc1cncnc1 [Roche-Dataset for PDE10A, Compound 988]
7.9 µM	Cc1cncc(CCc2nc(N3CCCC3)nn2C)n1 [Roche-Dataset for PDE10A, Compound 989]
0.015 µM	O=C(Nc1conc1-c1ccccn1)c1nc(C2CC2)ccc1Nc1cncnc1 [Roche-Dataset for PDE10A, Compound 990]
9.44 µM	Cn1ncc(C(=O)N2CCC2)c1C(=O)Nc1cc(C2CCCCC2)n[nH]1 [Roche-Dataset for PDE10A, Compound 991]
10 µM	CC(=O)N1CCC(NC(=O)c2nc(C3CC3)cnc2Nc2cncnc2)CC1 [Roche-Dataset for PDE10A, Compound 993]
2.15 µM	Cc1ncn(-c2ccccc2)c1C(=O)Nc1cc(-c2ccccn2)nn1C [Roche-Dataset for PDE10A, Compound 994]
0.021 µM	O=C(Nc1cnccc1Cl)c1nc(C2CC2)ccc1Nc1cncnc1 [Roche-Dataset for PDE10A, Compound 995]
0.511 µM	Cc1c(Cl)cc(Cl)c2nc(CCc3nccs3)nn12 [Roche-Dataset for PDE10A, Compound 996]
0.696 µM	CNC(=O)[C@H]1CCC[C@@H]1NC(=O)c1nc(C2CC2)cnc1Nc1cncnc1 [Roche-Dataset for PDE10A, Compound 1000]
0.434 µM	O=C(Nc1cn(-c2ccccn2)cn1)c1nc(C2CC2)ccc1Br [Roche-Dataset for PDE10A, Compound 1003]
0.03 µM	O=C(Nc1ccnn1S(=O)(=O)C(F)(F)F)c1nc(C2CC2)ccc1Nc1cncnc1 [Roche-Dataset for PDE10A, Compound 1004]
0.675 µM	CN(C)C(=O)c1cc(NC(=O)c2nc(C3CC3)ccc2Nc2cncnc2)nn1C [Roche-Dataset for PDE10A, Compound 1005]

IC50	Structure (SMILES)
1.44 µM	CC(C)(NC(=O)c1nc(C2CC2)cnc1Nc1cncnc1)c1nnc(-c2cccnc2)o1 [Roche-Dataset for PDE10A, Compound 1006]
3.72 µM	Cc1nc2ccc(NC(=O)c3c(C(=O)N4CCC4)cnn3C)cn2n1 [Roche-Dataset for PDE10A, Compound 1007]
0.371 µM	O=C(c1nc(C2CC2)cnc1Nc1cncnc1)N1CCN(Cc2ccccc2)CC1 [Roche-Dataset for PDE10A, Compound 1008]
0.436 µM	Cn1ncc(C(=O)N2CCOCC2)c1C(=O)N[C@H]1CCn2cc(-c3ccccc3Cl)nc2C1 [Roche-Dataset for PDE10A, Compound 1009]
1.79 µM	COCC1(CNC(=O)c2nc(C3CC3)cnc2Nc2cncnc2)CC1 [Roche-Dataset for PDE10A, Compound 1010]
0.049 µM	COc1cccc(NC(=O)c2nc(C3CC3)cnc2Nc2cncnc2)n1 [Roche-Dataset for PDE10A, Compound 1011]
0.793 µM	CC(C)n1nc(NC(=O)c2nc(C3CC3)ccc2Nc2cncnc2)cc1C(=O)N(C)C [Roche-Dataset for PDE10A, Compound 1013]
10 µM	O=C(c1nc(C2CC2)cnc1Nc1cncnc1)N1CCN(CCc2ccccc2)CC1 [Roche-Dataset for PDE10A, Compound 1015]
0.049 µM	CC(=O)c1nn(C)cc1NC(=O)c1nc(C2CC2)cnc1Nc1cncnc1 [Roche-Dataset for PDE10A, Compound 1016]
0.768 µM	O=C(NCc1ccncn1)c1nc(C2CC2)cnc1Nc1cncnc1 [Roche-Dataset for PDE10A, Compound 1017]
10 µM	CNC(=O)c1cc(NC(=O)c2c(C(=O)N3CCC3)cnn2C)nn1C [Roche-Dataset for PDE10A, Compound 1021]
2.34 µM	CC(C)(C)CCNC(=O)c1nc(C2CC2)cnc1Nc1cncnc1 [Roche-Dataset for PDE10A, Compound 1022]
0.13 µM	Cn1ncc(C(=O)N2CCC2)c1C(=O)Nc1ccnn1-c1ccccn1 [Roche-Dataset for PDE10A, Compound 1024]
0.065 µM	Cc1nc2ccccc2nc1OCc1csc(N2CCCC2)n1 [Roche-Dataset for PDE10A, Compound 1025]
0.17 µM	CNC(=O)c1cccc(NC(=O)c2nc(C3CC3)cnc2Nc2cncnc2)n1 [Roche-Dataset for PDE10A, Compound 1026]
0.944 µM	COCCCNC(=O)c1nc(C2CC2)cnc1Nc1cncnc1 [Roche-Dataset for PDE10A, Compound 1027]
0.89 µM	O=C(NCc1cncs1)c1nc(C2CC2)cnc1Nc1cncnc1 [Roche-Dataset for PDE10A, Compound 1028]
0.397 µM	Cn1cc(C(=O)Nc2ccn3cc(-c4ccccc4)nc3n2)c(C(=O)NCc2ccccn2)n1 [Roche-Dataset for PDE10A, Compound 1029]
0.368 µM	Cn1ncc(C(=O)N2CCC2)c1C(=O)Nc1ccn(CCN2CCOCC2)n1 [Roche-Dataset for PDE10A, Compound 1030]
10 µM	O=C(NC1CCS(=O)(=O)CC1)c1nc(C2CC2)cnc1Nc1cncnc1 [Roche-Dataset for PDE10A, Compound 1031]
10 µM	Cn1ncc(C(=O)N2CCC2)c1C(=O)Nc1nnc(-c2ccccn2)o1 [Roche-Dataset for PDE10A, Compound 1032]
0.104 µM	Cn1nccc1NC(=O)c1nc(C2CC2)ccc1Nc1cncnc1 [Roche-Dataset for PDE10A, Compound 1033]

IC50	Structure (SMILES)
1.06 µM	Cn1ncc(C(=O)N2CCC2)c1C(=O)Nc1ccn(-c2ccc(Cl)cc2Cl)n1 [Roche-Dataset for PDE10A, Compound 1034]
4.33 µM	Cn1ncc(NC(=O)c2c(C(=O)N3CCC3)cnn2C)c1C(=O)N1CCCCC1 [Roche-Dataset for PDE10A, Compound 1035]
0.11 µM	O=C(Nc1cn(Cc2ccccn2)cn1)c1nc(C2CC2)ccc1Nc1cncnc1 [Roche-Dataset for PDE10A, Compound 1036]
0.029 µM	COC(=O)c1cccc(NC(=O)c2nc(C3CC3)cnc2Nc2cncnc2)n1 [Roche-Dataset for PDE10A, Compound 1037]
1.59 µM	O=C(NCC1CCC1)c1nc(C2CC2)cnc1Nc1cncnc1 [Roche-Dataset for PDE10A, Compound 1038]
10 µM	O=C(c1nc(C2CC2)cnc1Nc1cncnc1)N1CCN(C2CCCC2)CC1 [Roche-Dataset for PDE10A, Compound 1039]
10 µM	O=C(c1nc(C2CC2)cnc1Nc1cncnc1)N1CCN(C2CCCCC2)CC1 [Roche-Dataset for PDE10A, Compound 1040]
0.965 µM	O=C(NC1CCCC1)c1nc(C2CC2)cnc1Nc1cncnc1 [Roche-Dataset for PDE10A, Compound 1041]
0.854 µM	CC(C)c1cc(NC(=O)c2c(C(=O)N3CCC3)cnn2C)n(C2CCCC2)n1 [Roche-Dataset for PDE10A, Compound 1042]
0.396 µM	Cn1ncc(C(=O)N2CCC2)c1C(=O)Nc1ccn(-c2ccccc2F)n1 [Roche-Dataset for PDE10A, Compound 1043]
10 µM	O=C(c1nc(C2CC2)cnc1Nc1cncnc1)N1CCC(O)(Cc2ccccc2)CC1 [Roche-Dataset for PDE10A, Compound 1044]
0.197 µM	O=C(NC1CCN(c2ccccn2)CC1)c1nc(C2CC2)ccc1Nc1cncnc1 [Roche-Dataset for PDE10A, Compound 1045]
0.649 µM	Cc1cc(NC(=O)c2c(C(=O)N3CCC3)cnn2C)n(C2CCCC2)n1 [Roche-Dataset for PDE10A, Compound 1046]
0.432 µM	COc1ccc2c(=O)n(C)c3cnc(-c4ccccc4Cl)n3c2c1 [Roche-Dataset for PDE10A, Compound 1048]
0.136 µM	Cc1cc(NC(=O)c2c(C(=O)N3CCC3)cnn2C)nn1CC(F)F [Roche-Dataset for PDE10A, Compound 1050]
0.043 µM	Cn1ncc(C(=O)N2CCC2)c1C(=O)Nc1ccn(-c2cc(Cl)cc(Cl)c2)n1 [Roche-Dataset for PDE10A, Compound 1051]
0.367 µM	O=C(N[C@H]1CCN(c2ccccn2)C1)c1nc(C2CC2)ccc1Nc1cncnc1 [Roche-Dataset for PDE10A, Compound 1052]
0.014 µM	CNC(=O)c1c(NC(=O)c2nc(C3CC3)ccc2Nc2cncnc2)cnn1C [Roche-Dataset for PDE10A, Compound 1053]
1.48 µM	COc1ccc(NC(=O)c2nc(C3CC3)cnc2Nc2cncnc2)nn1 [Roche-Dataset for PDE10A, Compound 1054]
0.258 µM	CC(C)Cn1ccc(NC(=O)c2c(C(=O)N3CCC3)cnn2C)n1 [Roche-Dataset for PDE10A, Compound 1055]
0.594 µM	CCn1ncc(NC(=O)c2c(C(=O)N3CCC3)cnn2C)c1C(=O)NCC(C)C [Roche-Dataset for PDE10A, Compound 1057]
